The values that follow come from US11325892B2, “Compounds and methods for treating cancer” (Mayo Foundation for Medical Education and Research, priority 2014, dated 2022).

Each structure is given as a SMILES string. Like-named read-outs stand apart in the source and are kept apart here.

Holding throughout (format): cell-based
One experiment deals with SNU449 HCC cells. The experiment can be described thus: SNU449 cell proliferation (cellular DNA, Hoechst). As to conditions: Homo sapiens. The protocol:
SNU449 HCC cells were plated at 20,000 cells/well in 12-well plates. The next day, cells were treated with SSI-4, sorafenib or sorafenib plus SSI-4 at the indicated doses. […] On day 5, cells were frozen, DNA isolated and quantitated by […] (Hoechst reagent) in a spectrophotometer. Cellular DNA is directly proportional to cell number and is commonly used as a measure of cell number. All doses are in replicates of three with the mean +/−standard deviation determined.

Experiment [1] deals with A498, ACHN, and Caki1 cell lines. Nature of the experiment: Oleic acid (OA) rescue assay of cell proliferation in ccRCC cells. As to conditions: EC50 dose of compound with OA (5 μg/μL); all three cell lines. The protocol:
(§1) Cells were seeded at 5,000 cells/well in clear-bottom 96-well plates in triplicate in Maintenance Media. Drug treatment was applied at a concentration of 1:1000 in reduced serum (3%) Maintenance Media. After 72 hours, cells were washed with PBS, and stored at −80° C. prior to analysis using CyQuant® Proliferation Analysis Kit (Invitrogen) as per manufacturers' protocol for relative fluorescence units. Alternatively, cells were plated 2×10^5/well in 12-well plates (Midwest Scientific) in triplicate prior to drug treatment. After 120 hour treatment, cell number was established using a Coulter Particle Counter (Beckman). Or, cells were plated (0.5 or 1×10^5/well) in 24-well plates (Midwest Scientific), 3×. After 72 hour treatment, cell number established using Coulter Particle Counter (Beckman). Oleic acid-albumin (Sigma Aldrich) was added to media at 5 μM, and was applied adjuvant to drug treatment. Drug stocks were prepared in DMSO (Sigma) at 1000×. EC50 dosing per cell line was calculated using CalcuSyn® analytical software.
A498, ACHN, and Caki1 cell lines were treated with the EC50 dose of each MF-438, ChemBL375265, SSI-1, SSI-4, SSI-3, and SSI-2 with or without concomitant application of OA (5 μg/μL). […] Representative images of A498 cell morphology and density treated with each compound +/−OA are shown in (FIG. 2B).

In experiment [2] the test system is ATF6-UPRE luciferase reporter in A498 and ACHN cells. The experiment can be described thus: ATF6-UPRE luciferase reporter assay. The following applies: EC50 dose, 24H; both cell lines A498 and ACHN; completely blocked with OA. The protocol:
A498 and ACHN cells were transiently transfected with p5×ATF6-GL3 UPR luciferase reporter (Addgene plasmid#11976) and pRL-CMV-renilla (Promega) using Lipofectamine 2000 (Invitrogen). Cells were treated as indicated for 24H, prior to collection and analysis using Promega Dual Luciferase assay kit per manufacturer's specifications. Luciferase activity was measured using Veritas Luminometer (Promega); and results are reported as relative luminescence.
(§2) Activating transcription factor 6 (ATF6) is a key regulator of the unfolded protein response (UPR) that recognizes unfolded protein response elements (UPRE) in the promoter regions of several key mediators of the ER stress response, initiating their transcription (Wang Y, Shen J, Arenzana N, Tirasophon W, Kaufman R J, Prywes R. Activation of ATF6 and an ATF6 DNA binding site by the endoplasmic reticulum stress response. J Biol Chem. Sep. 1, 2000; 275(35):27013-27020). A498 and ACHN transfected with an ATF6-UPRE luciferase reporter were treated with the EC50 doses of ChemBL375265, SSI-1, SSI-4, SSI-3, and SSI-2 with or without OA supplementation were evaluated in order to determine whether the identified compounds could recapitulate activation of the UPR. […] Upregulation of the UPR markers BiP (heat shock 70 kDa protein, GRP78) and CHOP (damage inducible transcript 3, DDIT3) was evaluated by Western blot in A498 and ACHN cells treated with the EC50 doses of ChemBL375265, SSI-1, SSI-4, SSI-3, and SSI-2 with or without OA supplementation.
(In a reporter assay the amount or activity of a reporter protein is the signal.)

Experiment [3] has as its system BiP and CHOP expression in A498 and ACHN cells. The experiment can be described thus: Western blot for UPR markers BiP and CHOP. As to conditions: EC50 dose; both cell lines; blocked with concomitant OA treatment. The protocol:
Protein extraction and western blot analysis was performed as previously described (Copland J A, Marlow L A, Kurakata S, et al. Novel high-affinity PPARgamma agonist alone and in combination with paclitaxel inhibits human anaplastic thyroid carcinoma tumor growth via p21WAF1/CIP1. Oncogene. Apr 13 2006; 25(16):2304-2317). Primary antibodies included SCD1 (Sigma-Aldrich, #HPA012107), BiP (Cell Signaling, #3183), CHOP (Cell Signaling, #2895), sXBP1(Santa Cruz Biotechnology, #sc-7160), PARP(Cell Signaling, #9542), and β-actin (Sigma-Aldrich, #A5441).
as §2
(In general: Immunoblotting shows a protein as a band on a membrane.)

Experiment [4] deals with HK2, a transformed renal epithelial cell line. Nature of the experiment: High-throughput proliferative screen, non-cancerous cells. The protocol: as §1
In order to identify potential SCD1 inhibitors, a high-throughput proliferative-based screening method was used, with four ccRCC cell lines including A498, ACHN, Caki1, and Caki2. The SCD1 inhibitor MF-438 was included as a positive control. Known compounds ChemBL375265 (Liu G, Lynch J K, Freeman J, et al. Discovery of potent, selective, orally bioavailable stearoyl-CoA desaturase 1 inhibitors. Journal of medicinal chemistry. Jun. 28, 2007; 50(13): 3086-3100) (SetA.100) and SAR707 (Voss M D, Zoller G, Matter H, et al. Discovery and pharmacological characterization of SAR707 as novel and selective small molecule inhibitor of stearoyl-CoA desaturase (SCD1). European journal of pharmacology. May 5, 2013; 707(1-3): 140-146) (TC03.100) were included as single-blinded positive controls, and are indicated with an asterisk (*). […]

In the next experiment the test system is kidney cancer cells. Nature of the experiment: Combination with mTor inhibitor temsirolimus, cell proliferation. As to conditions: different concentrations with 0, 0.1, 1, and 10 nM temsirolimus.

In the case of `CNC(=O)c1cc(Oc2ccc(NC(=O)Nc3ccc(Cl)c(C(F)(F)F)c3)cc2)ccn1` [sorafenib], the IC50 in the experiment on SNU449 HCC cells (SNU-449, read-out: IC50 (dose at which 50% of cell proliferation is inhibited)) is 2000 nM.

In the case of `CNC(=O)c1ccnc(NC(=O)N2CCC(Oc3ccccc3Cl)CC2)c1` [SSI-4, 2-{[4-(2-Chlorophenoxy)piperidine-1-carbonyl]amino}-N-methylpyridine-4-carboxamide], in experiment [1], the “rescue of cell proliferation with OA” value was “Near total rescue of cell proliferation”. Further, in experiment [2], the luciferase activity entry is reported as “significant upregulation of luciferase activity”. In addition, the IC50 in the experiment with SNU449 HCC cells (SNU-449, SNU449, read-out: IC50 (dose at which 50% of cell proliferation is inhibited)) was determined as 3.2 nM. Moreover, the “BiP and CHOP expression” value in experiment [3] is “strongly induced both BiP and CHOP expression”. In experiment [4], the “reduction in cell proliferation” value was “approximately 20%”. The “kidney cancer cell proliferation” value with kidney cancer cells is given as “reduced kidney cancer cell proliferation”.
